Reference: publication PMC6979384, “Characterization of the plant homeodomain (PHD) reader family for their histone tail interactions” (Epigenetics & Chromatin, 2020)

Tests used:
Test in all cases: Histone peptide microarray
Type in all cases: binding, human
Conditions in all cases: histone peptide array
AIRE (PP) = test system: AIRE (PP)
In short: (§1)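 Purified PHD finger domains fused to GST are screened against 293 synthetic histone peptides bearing one or several post-translational modifications. The protein is used at 0.5 μM, and the signal from four replicate arrays is averaged, with standard deviation given.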

BAZ2B = test system: BAZ2B
In short: as §1

BPTF (PB) = test system: BPTF (PB)
In short: as §1

CHD4 (PPCC) = test system: CHD4 (PPCC)
In short: as §1

CHD5 (PCC) = test system: CHD5 (PCC)
In short: as §1

CHD5 (PPCC) = test system: CHD5 (PPCC)
In short: as §1

DIDO1 = test system: DIDO1
In short: as §1

DPF2 (PPC2W2) = test system: DPF2 (PPC2W2)
In short: as §1

ING1 = test system: ING1
In short: as §1

ING2 = test system: ING2
In short: as §1

ING3 = test system: ING3
In short: as §1

ING4 = test system: ING4
In short: as §1

ING5 = test system: ING5
In short: as §1

KDM4C (TTP) = test system: KDM4C (TTP)
In short: as §1

KDM5A (1) = test system: KDM5A (1)
In short: as §1

KDM5A (3) = test system: KDM5A (3)
In short: as §1

KDM5B (1) = test system: KDM5B (1)
In short: as §1

KDM5B (3) = test system: KDM5B (3)
In short: as §1

KDM7A = test system: KDM7A
In short: as §1

MLL5 = test system: MLL5
In short: as §1

MORC3 (CW) = test system: MORC3 (CW)
In short: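 Binding read as mean relative signal from 4 replicates; microarray held 293 synthetic histone peptides with single or combinatorial PTMs. Each GST-tagged PHD reader was applied at 0.5 μM using the optimized Petell protocol.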

PHF13 = test system: PHF13
In short: as §1

PHF21A = test system: PHF21A
In short: as §1

PHF23 = test system: PHF23
In short: as §1

PHF2 = test system: PHF2
In short: as §1

PHF8 = test system: PHF8
In short: as §1

PHRF1 (RP) = test system: PHRF1 (RP)
In short: as §1

RAG2 = test system: RAG2
In short: as §1

SP140L = test system: SP140L
In short: as §1

TAF3 = test system: TAF3
In short: as §1

TRIM66 (PB) = test system: TRIM66 (PB)
In short: as §1

[1] = sheet "Array Heatmap", GST-tagged reader, total n = 4

H3R2me2a + K4ac + K9ac + K14ac + K18ac: H3 1-20
Array Heatmap signal, AIRE (PP) (AIRE (PP); GST-tagged AIRE (PP), arrays performed twice, n of 4): 0.481 | Array Heatmap signal, BAZ2B (BAZ2B; GST-tagged BAZ2B, arrays performed twice, n of 4): 0.5184 | Array Heatmap signal, BPTF (PB) (BPTF (PB); GST-tagged BPTF (PB = PHD + Bromodomain), arrays performed twice, n of 4): 0.3551 | Array Heatmap signal, CHD4 (PPCC) (CHD4 (PPCC); GST-tagged CHD4 (PPCC = Dual PHD + Dual Chromodomain), arrays performed twice, n of 4): 0.5562 | Array Heatmap signal, CHD5 (PCC) (CHD5 (PCC); GST-tagged CHD5 (PCC = PHD + Dual Chromodomain), arrays performed twice, n of 4): 0.8359 | Array Heatmap signal, CHD5 (PPCC) (CHD5 (PPCC); GST-tagged CHD5 (PPCC = Dual PHD + Dual Chromodomain), arrays performed twice, n of 4): 0.5571 | Array Heatmap signal, DIDO1 (DIDO1; GST-tagged DIDO1, arrays performed twice, n of 4): 0.6585 | Array Heatmap signal, DPF2 (PPC2W2) (DPF2 (PPC2W2); GST-tagged DPF2 (PPC2W2 = Dual PHD + C2W2-type Zn-finger), arrays performed twice, n of 4): 0.6307 | Array Heatmap signal, ING1 (ING1; GST-tagged ING1, arrays performed twice, n of 4): 0.488 | Array Heatmap signal, ING2 (ING2; GST-tagged ING2, arrays performed twice, n of 4): 0.5976 | Array Heatmap signal, ING3 (ING3; GST-tagged ING3, arrays performed twice, n of 4): 0.5009 | Array Heatmap signal, ING4 (ING4; GST-tagged ING4, arrays performed twice, n of 4): 0.4485 | Array Heatmap signal, ING5 (ING5; GST-tagged ING5, arrays performed twice, n of 4): 0.3422 | Array Heatmap signal, KDM4C (TTP) (KDM4C (TTP); GST-tagged KDM4C (TTP = Tandem Tudor domain + PHD), arrays performed twice, n of 4): 0.4988 | Array Heatmap signal, KDM5A (1) (KDM5A (1); GST-tagged KDM5A (1), arrays performed twice, n of 4): 0.4917 | Array Heatmap signal, KDM5A (3) (KDM5A (3); GST-tagged KDM5A (3), arrays performed twice, n of 4): 0.405 | Array Heatmap signal, KDM5B (1) (KDM5B (1); GST-tagged KDM5B (1), arrays performed twice, n of 4): 0.6453 | Array Heatmap signal, KDM5B (3) (KDM5B (3); GST-tagged KDM5B (3), arrays performed twice, n of 4): 0.4924 | Array Heatmap signal, KDM7A (KDM7A; GST-tagged KDM7A, arrays performed twice, n of 4): 0.4047 | Array Heatmap signal, MLL5 (MLL5; GST-tagged MLL5, arrays performed twice, n of 4): 0.5333 | Array Heatmap signal, MORC3 (CW) (MORC3 (CW); GST-tagged MORC3 (CW = CW-type Zn-finger), arrays performed twice, n of 4): 0.3697 | Array Heatmap signal, PHF13 (PHF13; GST-tagged PHF13, arrays performed twice, n of 4): 0.6029 | Array Heatmap signal, PHF21A (PHF21A; GST-tagged PHF21A, arrays performed twice, n of 4): 0.4733 | Array Heatmap signal, PHF23 (PHF23; GST-tagged PHF23, arrays performed twice, n of 4): 0.5405 | Array Heatmap signal, PHF2 (PHF2; GST-tagged PHF2, arrays performed twice, n of 4): 0.4783 | Array Heatmap signal, PHF8 (PHF8; GST-tagged PHF8, arrays performed twice, n of 4): 0.3535 | Array Heatmap signal, PHRF1 (RP) (PHRF1 (RP); GST-tagged PHRF1 (RP), arrays performed twice, n of 4): 0.4078 | Array Heatmap signal, RAG2 (RAG2; GST-tagged RAG2, arrays performed twice, n of 4): 0.259 | Array Heatmap signal, SP140L (SP140L; GST-tagged SP140L, arrays performed twice, n of 4): 0.3281 | Array Heatmap signal, TAF3 (TAF3; GST-tagged TAF3, arrays performed twice, n of 4): 0.2624 | Array Heatmap signal, TRIM66 (PB) (TRIM66 (PB); GST-tagged TRIM66 (PB = PHD + Bromodomain), arrays performed twice, n of 4): 0.5934

H3.3K18ac + K23ac + K27ac: H3.3 15-34
Array Heatmap signal, AIRE (PP) (AIRE (PP); [1]): 0.3882 | Array Heatmap signal, BAZ2B (BAZ2B; [1]): 0.3976 | Array Heatmap signal, BPTF (PB) (BPTF (PB); [1]): 0.2983 | Array Heatmap signal, CHD4 (PPCC) (CHD4 (PPCC); [1]): 0.4939 | Array Heatmap signal, CHD5 (PCC) (CHD5 (PCC); [1]): 0.7415 | Array Heatmap signal, CHD5 (PPCC) (CHD5 (PPCC); [1]): 0.4663 | Array Heatmap signal, DIDO1 (DIDO1; [1]): 0.6174 | Array Heatmap signal, DPF2 (PPC2W2) (DPF2 (PPC2W2); [1]): 0.5923 | Array Heatmap signal, ING1 (ING1; [1]): 0.4856 | Array Heatmap signal, ING2 (ING2; [1]): 0.5898 | Array Heatmap signal, ING3 (ING3; [1]): 0.4284 | Array Heatmap signal, ING4 (ING4; [1]): 0.3863 | Array Heatmap signal, ING5 (ING5; [1]): 0.2999 | Array Heatmap signal, KDM4C (TTP) (KDM4C (TTP); [1]): 0.4047 | Array Heatmap signal, KDM5A (1) (KDM5A (1); [1]): 0.4013 | Array Heatmap signal, KDM5A (3) (KDM5A (3); [1]): 0.3827 | Array Heatmap signal, KDM5B (1) (KDM5B (1); [1]): 0.6049 | Array Heatmap signal, KDM5B (3) (KDM5B (3); [1]): 0.4033 | Array Heatmap signal, KDM7A (KDM7A; [1]): 0.2948 | Array Heatmap signal, MLL5 (MLL5; [1]): 0.5276 | Array Heatmap signal, MORC3 (CW) (MORC3 (CW); [1]): 0.3178 | Array Heatmap signal, PHF13 (PHF13; [1]): 0.5394 | Array Heatmap signal, PHF21A (PHF21A; [1]): 0.4029 | Array Heatmap signal, PHF23 (PHF23; [1]): 0.5184 | Array Heatmap signal, PHF2 (PHF2; [1]): 0.5078 | Array Heatmap signal, PHF8 (PHF8; [1]): 0.3485 | Array Heatmap signal, PHRF1 (RP) (PHRF1 (RP); [1]): 0.3802 | Array Heatmap signal, RAG2 (RAG2; [1]): 0.2141 | Array Heatmap signal, SP140L (SP140L; [1]): 0.3146 | Array Heatmap signal, TAF3 (TAF3; [1]): 0.2149 | Array Heatmap signal, TRIM66 (PB) (TRIM66 (PB); [1]): 0.509
